Measured values taken from article PMC4045134, “Discovery of Triterpenoids as Reversible Inhibitors of α/β-hydrolase Domain Containing 12 (ABHD12)” (PLoS ONE, 2014).

Columns and labels:
Format in all cases: biochemical
hABHD12 [1] = target: T1, hABHD12 (Homo sapiens, UniProt Q8N2K0); assay: Fluorescent glycerol assay of 1-AG hydrolysis in hABHD12-HEK293 lysates; details: hABHD12-HEK293 lysates
T1 construct: expressed in transfected cells; host or cells: HEK293 (transient)
T1 sequence (Q8N2K0 1-398): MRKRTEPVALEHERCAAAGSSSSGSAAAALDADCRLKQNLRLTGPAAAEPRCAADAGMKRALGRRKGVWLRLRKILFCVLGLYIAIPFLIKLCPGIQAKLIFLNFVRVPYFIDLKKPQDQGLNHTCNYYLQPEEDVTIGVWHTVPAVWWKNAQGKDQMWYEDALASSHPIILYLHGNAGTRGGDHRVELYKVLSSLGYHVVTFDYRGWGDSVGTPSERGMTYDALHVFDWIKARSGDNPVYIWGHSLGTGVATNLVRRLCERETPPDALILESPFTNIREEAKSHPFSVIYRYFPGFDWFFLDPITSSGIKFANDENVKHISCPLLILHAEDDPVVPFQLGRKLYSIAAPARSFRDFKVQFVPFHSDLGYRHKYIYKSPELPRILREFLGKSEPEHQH

hCB2R = target: T2, hCB2R (Homo sapiens, UniProt P34972); assay: [35S]GTPγS binding, CB2R agonist activity, hCB2R-CHO cell membranes; details: 10 µM
T2 construct: expressed in transfected cells; host or cells: CHO
T2 sequence (P34972 whole entry): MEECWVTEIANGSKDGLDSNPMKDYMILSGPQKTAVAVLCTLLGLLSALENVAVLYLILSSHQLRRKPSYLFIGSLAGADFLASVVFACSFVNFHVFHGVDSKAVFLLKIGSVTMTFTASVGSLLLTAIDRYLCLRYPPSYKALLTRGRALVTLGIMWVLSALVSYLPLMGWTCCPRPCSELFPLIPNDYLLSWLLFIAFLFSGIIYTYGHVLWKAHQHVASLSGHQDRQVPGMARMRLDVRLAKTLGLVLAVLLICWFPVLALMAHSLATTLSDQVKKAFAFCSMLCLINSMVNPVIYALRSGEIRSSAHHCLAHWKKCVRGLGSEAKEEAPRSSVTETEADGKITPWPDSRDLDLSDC

CB1R = target: T3, CB1R (Rattus norvegicus, UniProt P20272); assay: [35S]GTPγS binding, CB1R antagonist activity, rat cerebellar membranes; details: 10 µM
T3 construct: membranes prepared from brain tissue of 4-week-old male rodents were used; from tissue; host or cells: rat cerebellar membranes
T3 sequence (P20272 whole entry): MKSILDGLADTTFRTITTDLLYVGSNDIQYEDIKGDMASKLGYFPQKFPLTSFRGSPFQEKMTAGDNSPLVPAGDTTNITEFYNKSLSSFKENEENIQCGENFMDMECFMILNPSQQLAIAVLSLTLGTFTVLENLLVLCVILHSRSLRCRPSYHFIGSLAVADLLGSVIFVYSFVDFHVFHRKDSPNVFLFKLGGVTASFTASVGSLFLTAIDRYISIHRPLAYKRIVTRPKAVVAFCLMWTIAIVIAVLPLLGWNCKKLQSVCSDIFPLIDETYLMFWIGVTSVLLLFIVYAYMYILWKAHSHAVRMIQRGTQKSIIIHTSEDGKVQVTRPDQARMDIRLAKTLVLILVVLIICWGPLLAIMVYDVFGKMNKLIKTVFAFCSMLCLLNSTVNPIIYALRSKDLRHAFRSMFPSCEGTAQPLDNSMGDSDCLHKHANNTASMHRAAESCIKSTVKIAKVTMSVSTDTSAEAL
Experimental: The CB1 and CB2 receptor activity of the selected compounds (10 µM) were measured using the GTPγS binding assay according to the previously described methods, [33].
For ABPP experiments (Figure 6C) and cannabinoid receptor activity assays (Table S2), membranes prepared from brain tissue of 4-week-old male rodents were used. The animals were obtained from the National Laboratory Animal Centre, University of Eastern Finland. Approval for the harvesting of animal tissue was obtained from the local welfare officer of the University of Eastern Finland.

hABHD12 [2] = target: T1, hABHD12; assay: Reversibility testing, 40-fold dilution of enzyme-inhibitor complex; details: time points 10, 20, 30, 60 and 90 min
Experimental: Reversibility testing was carried out as previously described. Briefly, DMSO/inhibitor (0.5 µl) was incubated together with hABHD12-HEK293 lysate (4.5 µl, 0.3 µg protein/well) in TEMN-BSA buffer for 30 min. After this, a 40-fold dilution of enzyme-inhibitor complex was brought about by addition of the substrate [1-AG, 12.5 µM final concentration, containing additionally 1% EtOH (v/v)] in 195 µl of glycerol assay mix and fluorescence was kinetically monitored at 10 min intervals for 90 min at RT.

CC1(C)CC[C@]2(C(=O)O)CC[C@]3(C)C(=CC[C@@H]4[C@@]5(C)C[C@@H](O)[C@H](O)C(C)(C)[C@@H]5CC[C@]43C)[C@@H]2C1 [Compound 8, Maslinic acid, reference compound]
IC50 (hABHD12 [1]; three independent experiments, read-out: -logIC50±s.e.m. (converted)): 1.26 µM
Emax (hABHD12 [1]; read-out: max inhibition (converted)): 89%
CB2R agonist activity [35S]GTPγS binding % Basal (Mean (range), n=2) (hCB2R): 114 (104-123) % Basal
CB1R antagonist activity [35S]GTPγS binding % HU210-evoked response (Mean (range), n=2) (CB1R): 99 (97-102) % HU210-evoked response
time-dependency of inhibitor potency (IC50) after 40-fold dilution (hABHD12 [2]): time-dependent drop of inhibitor potency
